From a melting point compilation (Tetko et al.; mined from patent text by program, amines drawn as free bases though some values may be those of a salt)

melting point [°C] | SMILES
105 to 107 | CCCCCCOc1ccc(CBr)c2c(OCCCCCC)ccc(CBr)c12
226 | CC(C)n1cc(-c2nc(C(N)=O)c(N)nc2-c2ccc(F)c(F)c2)ccc1=O
154 to 156 | COC(=O)c1cc(N=C2C=CC(=O)C=C2)c(F)c(-c2ccc(Cl)cc2)n1
223 to 225 | CCSc1nsc(NC(=O)Oc2ccccc2)c1C#N
159 to 160 | COc1cccc(-c2cn(-c3ccccc3)c3ncnc(N)c23)c1
215 to 217 | Nc1nc(N)c(-c2cc(Cl)ccc2Cl)c(C(F)(F)F)n1
137 to 138 | CCOC(=O)N1CCN(C2=Nc3ccccc3Cc3ccccc32)CC1
150 | Cc1ccc2c(c1)c(=O)oc(=O)n2Cc1ccccc1
88 to 90 | CC(=O)c1cc(OCc2ccccc2)cc(NC(=O)C(C)(C)Br)c1O
208 to 209 | CCc1cc(C(=O)O)ccc1N=C1SCC2(CCCC2)N1C1CCCC1
167 to 168 | N#Cc1cccn1-c1ccc(CN2C(=O)c3ccccc3C2=O)cc1
65 to 68 | O=C(NN1CCCCC1)c1cc(Oc2c(F)cc(C(F)(F)F)cc2Cl)ccc1[N+](=O)[O-]
68 to 69 | CCOC(=O)c1ccc(N2CSCC2=O)cc1
128 to 131 | CCN1C(=O)C(C)(C)C(=O)N(C)c2cc(CN(CCn3ccc4oc(C)cc4c3=O)Cc3ccnn3C)ccc21
100 to 124 | NC(=O)c1ccc([N+](=O)[O-])c(CN2C(=O)c3ccccc3C2=O)c1
120 to 123 | COc1ccc(C=Cc2ccc([N+](=O)[O-])cc2C(F)(F)F)cc1
150 | CC(=O)OC1CSC(Oc2cc(F)cnc2C#N)C(OC(C)=O)C1OC(C)=O (configuration not stated)
159 to 160 | NC(=O)c1cnc2sccc2c1Cl
> 275 | Nc1ccc2c(c1)CN1CC(=O)NC1=N2
> 270 | CCCn1c(=O)c2[nH]c(C3CCCC3)nc2n(CCc2ccc(NC(=O)CC)cc2)c1=O
151 | CCOC(=O)c1ccc(NS(C)(=O)=O)c(N)c1
120 to 122 | CCSc1ccc(-c2ccccn2)c2c1C(=O)CC(C)C2 (configuration not stated)
84.5 to 85.5 | CCOC(=O)c1sc(C)nc1SC(=O)N(C)C

melting point [°C] | SMILES
256 to 260 | Cc1c(C)c(N2CCN(c3c(C)c(C)c4c(c3C)CC(C)(C)O4)CC2)c(C)c2c1OC(C)(C)C2
168 | O=C(c1ccc(F)c(F)c1)N1CCCC(c2noc(-c3ccc[nH]3)n2)C1 (configuration not stated)
133 to 135 | COc1ccc(C2=NN(Cc3ccccc3)C(=O)[C@H]3CC=CC[C@@H]23)cc1OC (relative stereo)
117 to 120 | CN(C)C=C(C=O)c1ccc(Cl)cc1
159 to 160 | O=S1(=O)N=CN(C2CC2)c2c(Cl)cccc21
190 | O=C(NCc1cn(-c2ccc(N3CCOCC3)c(F)c2)nn1)C(Cl)Cl
101 to 102 | CC(=O)c1cccc(Oc2ncccc2OCCCc2ccncc2O)c1
66.5 to 67.5 | CC(Oc1ccc(Oc2ccc(C(F)(F)F)cc2Cl)cc1)C(=O)N1CCCO1 (configuration not stated)
195 to 199 | CC(=O)C(=Cc1ccc(C(=O)O)cc1)C(C)=O
68 to 68.6 | OCCCc1ccc(OCc2ccco2)cc1Oc1ncc(C(F)(F)F)cc1Cl
201 to 202 | CCOC(=O)C1=C(C)Nc2ncnc(OC(C)C)c2C1c1ccccc1 (configuration not stated)
107 to 109 | CCc1nc(/C=C/c2cccc(Cl)c2Cl)no1
174 to 177 | OC1(c2ccncc2)c2ccccc2CCc2ccccc21
255 to 256 | Cc1nc(N2CCC[C@H]2CO)c2nc(-c3ccccc3)cc-2[nH]1
210 to 215 | CC12CCC3c4ccc(C(=O)O)cc4CCC3C1CCC2C(=O)c1ccccc1 (configuration not stated)
92 to 100 | COc1cc(C2CCN(C(=O)C(C)(C)N)CC2)ccc1Nc1ncc2ccc(-c3ccccc3N(C)S(C)(=O)=O)n2n1
135 to 136 | CC(=O)OC1CC2=CCC3C4CCC(C(C)CI)C4(C)CCC3C2(C)C(OC(C)=O)C1 (configuration not stated)
140 to 142 | CCOC(=O)C(C#N)=CNc1ncccc1Cl
145 to 154 | COCOc1c(NC(=O)N(c2ccccc2)C2CCC(NC(=O)OCc3ccccc3)CC2)cc(OC)cc1C(C)(C)C (configuration not stated)
139 to 142 | CCC(=O)Nc1c(C#N)cnn1-c1nc(NCc2ccccc2)c(C(F)(F)F)cc1Cl
161 to 162 | COc1cccc(CC(=O)O)c1OCCCc1cn(-c2ccc([N+](=O)[O-])cn2)nc1C(C)C
68 to 70 | c1ccc(C(Oc2ccncc2)c2ccccc2)cc1
151 to 152 | CN1C(=O)CCCc2ccc([N+](=O)[O-])cc21

melting point [°C] | SMILES
135 to 137 | COC(=O)C#CC1CCC2C3CCC4CC(O)CCC4(C)C3CCC12C (configuration not stated)
79 to 80.5 | COC(=O)N=C(NC(=O)NC1CCCCC1)OC
137 to 138 | CCCOc1ccccc1-c1nc(O)cc(C(=O)OCC)n1
184 to 186 | Cc1n[nH]c(=O)cc1-c1ccc(OC2CCN(C(=O)OC(C)(C)C)CC2)cc1
219 to 221 | Cc1ccc2c(c1)c(Sc1ccc(Cl)cc1)c(C)n2CC(=O)O
112 | CC(O)COC(c1c(C(C)C)nn2ccccc12)C(C)C (configuration not stated)
188 to 189 | CN1CCC(=C2c3ccccc3C=Cc3ccc(C(=O)OCN4C(=O)CN(C)C4=O)cc32)CC1
174 to 176 | Nc1cc(-c2ccnc3c(C(=O)c4cccs4)cnn23)cs1
148 to 151 | Cc1ccc(S(=O)(=O)c2ccc(N3CCN(C)CC3)cc2N)cc1
184 to 185 | CCCCC[N+]([O-])=[N+]([O-])CC
84 to 86 | CC(=O)SCCc1nc[nH]n1
243 to 245 | N#Cc1cccc(S(=O)(=O)N2CCn3c(c(C(N)=O)c(Cl)c3-c3ccccc3)C2)c1
121 to 123 | CCOC(=O)c1cc(OC2COCCC2=O)[nH]n1 (configuration not stated)
193 to 195 | Cc1c(C#N)cc(C(C)(C)C)c(O)c1C(=O)Nc1ccc(Sc2ccc(Cl)cc2)cc1C(F)(F)F
165 to 167 | C#Cc1nc(NOC)c2ncn([C@@H]3O[C@H](CO)[C@@H](O)[C@H]3O)c2n1
89 to 91 | COP(=O)(O)Cc1ccc(O)cc1
88 to 90 | COC(=O)c1cccc(OC(F)(F)C(F)Br)c1 (configuration not stated)
227 to 228 | CN1CCN(C2=Nc3ccccc3N=C(N3CCN(C)CC3)C2)CC1
103 to 106 | COC(OC)[C@@H]1CCCN1C(=O)[C@@H]1CCCN1C(=O)C[C@H]1CCc2ccccc2C1
189 to 190 | Cc1ncc(CN2CCN(c3ccccc3C)CC2)c(N)n1
108 to 110 | NC1Cc2ccccc2N(c2ccccc2)C1=O (configuration not stated)
151 to 152 | COC(=O)c1cc(OCC(=O)O)cc(C(=O)OC)c1[N+](=O)[O-]
88 to 90 | CC(C)(C)OC(=O)Cn1cccc(NC(=O)OCc2ccccc2)c1=O

SMILES | melting point [°C]
CCN(Cc1ccccc1)C(=O)Cc1c(-c2ccc(Cl)c(Cl)c2)nc2cc(C)ccn12 | 180 to 182
CC(C)N(C(=O)CN1C(=O)C(C)(CC(=O)Nc2ccccc2)C(=O)N(c2ccc(Cl)cc2)c2ccccc21)c1ccccc1 (configuration not stated) | 170 to 176
CCCc1c(C(=O)C2CCCC2)c2ccc(C(N)=O)cc2n1Cc1ccccc1Cl | 202
